Laboratory results from the supplement of paper PMC11208160.

Test: recombinant barcode read abundance after kanamycin selection (control-corrected) (log10(CPM+1)); higher = more efficient recombination; sequences stand for … in AGTGCAGAGAAAATCGGCCAGTTTTCTCTGCCTGCAGTCCGCATGCCGT…AGATTTATGCAGCGGACTGCCTTTCTCCCAAAGTGATAAACCGGACAGTATCATGGACCGGTTTTCCCGGTAATCCGTATTTGCAAGGTTGGTTTCACT; site = the 11-nt target
In short: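 Pooled oligos, each joining a target to an IS621 bridge RNA target-binding loop, were cloned and co-electroporated with a donor plasmid into E. coli. Selective plates carried chloramphenicol/ampicillin/kanamycin and 0.1 mM IPTG, while chloramphenicol/ampicillin LB agar served as control, with two replicates of each. Recombination efficiency rests on averaged, control-corrected counts per million of barcodes at recombinant junctions, shown as log10(CPM+1).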
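Note: IS621 recombinase and bridge RNA in Escherichia coli cells.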

Row | Sequence | recombinant barcode read abundance (log10)
1 | AGTTGTCCTTGGGTTCTAACCTGTTGCGT (site AGTTGTCCTAA) | 0.121
2 | AGTTGTCCTTGGGTTCTAACCTGTTGCGT (site AGTTGTCCTAC) | 1.21
3 | AGTTGTCCTTGGGTTCTAACCTGTTGCGT (site AGTTGTCCTAG) | 0.108
4 | AGTTGTCCTTGGGTTCTAACCTGTTGCGT (site AGTTGTCCTAT) | 0.251
5 | AGTTTCACTTGGGTTCTAACCTGTTGCTA (site AGTTTCACTTA) | 0.111
6 | AGTTTCACTTGGGTTCTAACCTGTTGCTA (site GCCAAGGCTAG) | 1.31
7 | AGTTTCGCTTGGGTTCTAACCTGTTGCGG (site AGTATCGCTCC) | 0.215
8 | AGTTTCGCTTGGGTTCTAACCTGTTGCGG (site AGTCTCGCTCC) | 0.0337
9 | AGTTTCGCTTGGGTTCTAACCTGTTGCGG (site AGTGTCGCTCC) | 0.0655
10 | AGTTTCGCTTGGGTTCTAACCTGTTGCGG (site AGTTTCGCTCC) | 0.0842
11 | ATAAGAGCTTGGGTTCTAACCTGTTGCCT (site ATAAAAGCTAG) | 0.385
12 | ATAAGAGCTTGGGTTCTAACCTGTTGCCT (site ATAACAGCTAG) | 0.0202
13 | ATAAGAGCTTGGGTTCTAACCTGTTGCCT (site ATAAGAGCTAG) | 1.15
14 | ATAAGAGCTTGGGTTCTAACCTGTTGCCT (site ATAATAGCTAG) | 0.179
15 | ATAAGCTCTTGGGTTCTAACCTGTTGCCG (site ATAAGCTCTCG) | 1.92
16 | ATAAGCTCTTGGGTTCTAACCTGTTGCCG (site GAGCAACCTAA) | 0.0688
17 | ATAAGTCCTTGGGTTCTAACCTGTTGCGA (site ACAAGTCCTCC) | 0.869
18 | ATAAGTCCTTGGGTTCTAACCTGTTGCGA (site ATAAGTCCTTC) | 2.14
19 | ATAATACCTTGGGTTCTAACCTGTTGCCT (site ACAATACCTAG) | 0.135
20 | ATAATACCTTGGGTTCTAACCTGTTGCCT (site ATAATACCTAG) | 1.4
21 | ATAATAGCTTGGGTTCTAACCTGTTGCCT (site ATAAAAGCTAG) | 0.0804
22 | ATAATAGCTTGGGTTCTAACCTGTTGCCT (site ATAACAGCTAG) | 0.0342

Row | Sequence | recombinant barcode read abundance (log10)
23 | ATAATAGCTTGGGTTCTAACCTGTTGCCT (site ATAAGAGCTAG) | 0.0465
24 | ATAATAGCTTGGGTTCTAACCTGTTGCCT (site ATAATAGCTAG) | 1.63
25 | ATACCACCTTGGGTTCTAACCTGTTGCCT (site AAACCACCTAG) | 0.278
26 | ATACCACCTTGGGTTCTAACCTGTTGCCT (site ACACCACCTAG) | 1.24
27 | ATACCACCTTGGGTTCTAACCTGTTGCCT (site AGACCACCTAG) | 0.431
28 | ATACCACCTTGGGTTCTAACCTGTTGCCT (site ATACCACCTAG) | 1.77
29 | ATACCTCCTTGGGTTCTAACCTGTTGCCT (site ATACCTCCTAG) | 1.69
30 | ATACCTCCTTGGGTTCTAACCTGTTGCCT (site CTAACTCCTAG) | 0.148
31 | ATACGTCCTTGGGTTCTAACCTGTTGCAT (site AGACGTCCTAC) | 0.224
32 | ATACGTCCTTGGGTTCTAACCTGTTGCAT (site ATACGTCCTAT) | 1.12
33 | ATAGCCACTTGGGTTCTAACCTGTTGCCT (site ATAGCAACTAG) | 0.141
34 | ATAGCCACTTGGGTTCTAACCTGTTGCCT (site ATAGCCACTAG) | 1.02
35 | ATAGCCACTTGGGTTCTAACCTGTTGCCT (site ATAGCGACTAG) | 0.0246
36 | ATAGCCACTTGGGTTCTAACCTGTTGCCT (site ATAGCTACTAG) | 0.0679
37 | ATAGCGACTTGGGTTCTAACCTGTTGCCT (site ATAGCAACTAG) | 1.18
38 | ATAGCGACTTGGGTTCTAACCTGTTGCCT (site ATAGCCACTAG) | 0.13
39 | ATAGCGACTTGGGTTCTAACCTGTTGCCT (site ATAGCGACTAG) | 1.54
40 | ATAGCGACTTGGGTTCTAACCTGTTGCCT (site ATAGCTACTAG) | 0
41 | ATAGGAACTTGGGTTCTAACCTGTTGCCT (site ATAGGAACTAG) | 1.4
42 | ATAGGAACTTGGGTTCTAACCTGTTGCCT (site ATGGGCACTAG) | 0.0276
43 | ATAGGACCTTGGGTTCTAACCTGTTGCAG (site ATAGGACCTCT) | 2.75
44 | ATAGGACCTTGGGTTCTAACCTGTTGCAG (site ATATGTCCTCT) | 0.328

Row | Sequence | recombinant barcode read abundance (log10)
45 | ATAGGACCTTGGGTTCTAACCTGTTGCCA (site ATAGGACCTCG) | 0.653
46 | ATAGGACCTTGGGTTCTAACCTGTTGCCA (site ATAGGACCTTG) | 1.57
47 | ATAGGGACTTGGGTTCTAACCTGTTGCCT (site ATAGGGACTAG) | 2.31
48 | ATAGGGACTTGGGTTCTAACCTGTTGCCT (site GTAGCGACTAG) | 0.177
49 | ATAGGGACTTGGGTTCTAACCTGTTGCTA (site ATAAGGACTTA) | 1.97
50 | ATAGGGACTTGGGTTCTAACCTGTTGCTA (site ATACGGACTTA) | 0.291
51 | ATAGGGACTTGGGTTCTAACCTGTTGCTA (site ATAGGGACTTA) | 2.91
52 | ATAGGGACTTGGGTTCTAACCTGTTGCTA (site ATATGGACTTA) | 0.759
53 | ATAGTCCCTTGGGTTCTAACCTGTTGCCT (site ATAGTCCCTAG) | 2.25
54 | ATAGTCCCTTGGGTTCTAACCTGTTGCCT (site ATGGTCCCTAG) | 0.644
55 | ATAGTTACTTGGGTTCTAACCTGTTGCCT (site ATAGTTACTAG) | 1.73
56 | ATAGTTACTTGGGTTCTAACCTGTTGCCT (site ATGATTACTAG) | 0.129
57 | ATATACGCTTGGGTTCTAACCTGTTGCCT (site ATATACGCTAG) | 1.84
58 | ATATACGCTTGGGTTCTAACCTGTTGCCT (site CTATAGGCTAG) | 0.0578
59 | ATATCGTCTTGGGTTCTAACCTGTTGCCT (site ATATCGTCTAG) | 1.61
60 | ATATCGTCTTGGGTTCTAACCTGTTGCCT (site CTATCGTCTAG) | 0.0269
61 | ATATGCGCTTGGGTTCTAACCTGTTGCCG (site ATATGAGCTCG) | 0.108
62 | ATATGCGCTTGGGTTCTAACCTGTTGCCG (site ATATGCGCTCG) | 1.43
63 | ATATGCGCTTGGGTTCTAACCTGTTGCCG (site ATATGGGCTCG) | 0.0781
64 | ATATGCGCTTGGGTTCTAACCTGTTGCCG (site ATATGTGCTCG) | 0.262
65 | ATATGTACTTGGGTTCTAACCTGTTGCAG (site ATACGGACTCT) | 0
66 | ATATGTACTTGGGTTCTAACCTGTTGCAG (site ATATGTACTCT) | 2.1
